Measured values published in US12595289B2, “Therapeutic agent for breast cancer comprising BIG3-PHB2 interaction-inhibiting peptide derived from PHB2” (TOKUSHIMA UNIVERSITY, priority 2018, dated 2026).

B1: 11-90aa: PHB2 peptide of 11-90aa comprising the two regions of No. 1 and No. 5; 80 amino acids (peptide)
chain: RLPAGPRGMGTALKLLLGAGAVAYGVRESVFTVEGGHRAIFFNRIGGVQQDTILAEGLHFRIPWFQYPIIYDIRARPRKI
modifications: PHB2 derived peptide 11-90aa
notes: PHB2 peptide of 11-90aa comprising the two regions of No. 1 and No. 5; 80 amino acids

Tests used:
[1] = test system: Normal mammary gland epithelial cell line MCF-10A; assay: Growth assay on normal mammary gland epithelial cells MCF-10A; format: cell-based; conditions: MCF-10A, 10 μM each peptide, 24 hours
Experimental: (§1) Growth assay on MCF-7 was carried out by seeding cells into 48-well plates (2×10^4 cells/200 μL). First, on the next day after seeding, the medium was changed to phenol red-free DMEM/F12 (Thermo Fisher Scientific) supplemented with 10% FBS, 1% Antibiotic/Antimycotic solution, 0.1 mM NEAA, 1 mM sodium pyruvate, and 10 μg/mL insulin. 24 hours later, the cells were treated with 10 nM 17β-estradiol (estrogen, Sigma) alone or with 10 nM estrogen and a PHB2 sequence-derived peptide. Growth assay on MCF-10A was carried out by seeding cells into 48-well plates (2×10^4 cells/200 μL). 24 hours after seeding, PHB2 sequence-derived peptide was added. Growth assays were carried out using the Cell Counting Kit-8 (CCK-8) (Dojindo, Kumamoto, Japan). The data are shown by mean±standard deviation of three independent experiments.

[2] = test system: Human breast cancer cell line MDA-MB-231; assay: Combination assay on MDA-MB-231; format: cell-based; conditions: MDA-MB-231, each peptide at respective IC50, 96 hours
Experimental: MDA-MB-231 cells were seeded into 48-well plates at a cell density of 1×10^4 cells/200 μL in well. 48 hours later, the medium in each well was exchanged to media supplemented with PHB2 peptide 11-22aa (added concentration: IC50 value), PHB2 peptide 76-90aa (added concentration: IC50 value) and a mixed solution of both peptides (added concentration: respective IC50 value), respectively, or to a medium supplemented with phosphate buffered saline (PBS) as a negative control. After culture for another 96 hours, the cell growth level was measured using the Cell Counting Kit-8 (Dojindo, Kumamoto, Japan). The data obtained was used to calculate relative values based on the growth level when PBS was added, and the graph was produced.

[3] = test system: PHB2 (Ser39) phosphorylation; assay: Ser39 phosphorylation of PHB2 in MCF-7 by Western blotting; format: cell-based, Human; conditions: MCF-7, 10 μM each peptide, 10 nM estrogen, 24 hours (FIG. 2C)
Experimental: (§2) For immunoblot analyses, after performing SDS-PAGE, the membranes blotted with proteins were blocked with 4% BlockAce solution (Dainippon Pharmaceutical, Osaka, Japan) for 3 hours and then incubated to react for 12 hours with antibodies against BIG3 (1:1,000), PHB2 (1:1,000) (Abcam, Cambridge, UK) and phosphorylated PHB2 (Ser39, Scrum, Tokyo, Japan). After allowing interaction with HRP-labeled secondary antibodies (anti-rat IgG-HRP for BIG3, 1:5,000; and anti-rabbit IgG-HRP for PHB2 and phosphorylated PHB2, 1:1,000) (Santa Cruz Biotechnology, Dallas, TX, USA) for 1 hour, the blots were developed with the Enhanced Chemiluminescence (ECL) system (GE Healthcare, Buckinghamshire, UK) and scanned using the Image Reader LAS-3000 mini (Fujifilm, Tokyo, Japan).

[4] = test system: Human breast cancer cell line MDA-MB-231; conditions: 96 h
Experimental: MDA-MB-231 cells were seeded into 48-well plates at a cell density of 1×10^4 cells/200 μL in well. […] Data were obtained from three independent experiments, a graph (mean±standard deviation) was produced using a graphing and data analyzing software SigmaPlot (Systat Software, San Jose, CA, USA), and the 50% inhibition concentration (IC50) of the peptide against cell growth was calculated.

[5] = test system: Human breast cancer cell line MCF-7; assay: Estrogen (E2)-dependent growth assay on MCF-7; format: cell-based; conditions: MCF-7, 10 μM each peptide, 10 nM estrogen, 24 hours
Experimental: as §1
PHB2 peptides 11-21aa and 76-88aa were cross-linked by three types of cross-linking methods (FIG. 10A: hexafluorobenzene cross-linking, decafluorobiphenyl cross-linking, and disulfide cross-linking) to prepare cross-linked PHB2 peptides (stapled PHB2 peptides) (FIG. 10B), and the suppressive effects of these peptides on estrogen-dependent growth were examined. In the experiment, breast cancer cells MCF-7 were seeded, 10 μM each PHB2 peptide and 10 nM estrogen were added after 48 hours, and the cell number was evaluated after another 24 hours by MTT assay.

[6] = test system: Human breast cancer cell line MCF-7; assay: Estrogen (E2)-dependent growth assay on MCF-7; format: cell-based; conditions: MCF-7, 10 μM peptide alone, 10 nM estrogen, after 96 hours
[7] = target: T1, interaction between BIG3 and PHB2 (Homo sapiens, UniProt Q5TH69); assay: Inhibition of BIG3-PHB2 binding in MCF-7, immunoprecipitation with anti-BIG3 antibody and Western blotting; format: cell-based; conditions: MCF-7 (FIG. 3B)
T1 construct: endogenous in cells; host or cells: MCF-7 (human breast cancer cell line)
Experimental: as §2
For immunoprecipitation, MCF-7 was seeded into 10 cm dishes (2×10^6 cells/10 mL), and like cell growth assay, MCF-7 was treated with 10 nM estrogen alone or with 10 nM estrogen and PHB2 sequence-derived peptide. For immunoprecipitation analysis, cell lysates lysed in a cell lysis buffer (50 mM Tris-HCl; pH 8.0, 150 mM NaCl, 0.1% NP-40, and 0.5% CHAPS; 0.1% protease inhibitor cocktail III) were pre-cleared with a rat IgG antibody and rec-Protein G Sepharose 4B (Thermo Fisher Scientific) at 4° C. for 3 hours. Then, the supernatants were incubated for reaction with 5 μg of an antibody against BIG3 at 4° C. for 12 hours. […]

T1 sequence (Q5TH69 whole entry): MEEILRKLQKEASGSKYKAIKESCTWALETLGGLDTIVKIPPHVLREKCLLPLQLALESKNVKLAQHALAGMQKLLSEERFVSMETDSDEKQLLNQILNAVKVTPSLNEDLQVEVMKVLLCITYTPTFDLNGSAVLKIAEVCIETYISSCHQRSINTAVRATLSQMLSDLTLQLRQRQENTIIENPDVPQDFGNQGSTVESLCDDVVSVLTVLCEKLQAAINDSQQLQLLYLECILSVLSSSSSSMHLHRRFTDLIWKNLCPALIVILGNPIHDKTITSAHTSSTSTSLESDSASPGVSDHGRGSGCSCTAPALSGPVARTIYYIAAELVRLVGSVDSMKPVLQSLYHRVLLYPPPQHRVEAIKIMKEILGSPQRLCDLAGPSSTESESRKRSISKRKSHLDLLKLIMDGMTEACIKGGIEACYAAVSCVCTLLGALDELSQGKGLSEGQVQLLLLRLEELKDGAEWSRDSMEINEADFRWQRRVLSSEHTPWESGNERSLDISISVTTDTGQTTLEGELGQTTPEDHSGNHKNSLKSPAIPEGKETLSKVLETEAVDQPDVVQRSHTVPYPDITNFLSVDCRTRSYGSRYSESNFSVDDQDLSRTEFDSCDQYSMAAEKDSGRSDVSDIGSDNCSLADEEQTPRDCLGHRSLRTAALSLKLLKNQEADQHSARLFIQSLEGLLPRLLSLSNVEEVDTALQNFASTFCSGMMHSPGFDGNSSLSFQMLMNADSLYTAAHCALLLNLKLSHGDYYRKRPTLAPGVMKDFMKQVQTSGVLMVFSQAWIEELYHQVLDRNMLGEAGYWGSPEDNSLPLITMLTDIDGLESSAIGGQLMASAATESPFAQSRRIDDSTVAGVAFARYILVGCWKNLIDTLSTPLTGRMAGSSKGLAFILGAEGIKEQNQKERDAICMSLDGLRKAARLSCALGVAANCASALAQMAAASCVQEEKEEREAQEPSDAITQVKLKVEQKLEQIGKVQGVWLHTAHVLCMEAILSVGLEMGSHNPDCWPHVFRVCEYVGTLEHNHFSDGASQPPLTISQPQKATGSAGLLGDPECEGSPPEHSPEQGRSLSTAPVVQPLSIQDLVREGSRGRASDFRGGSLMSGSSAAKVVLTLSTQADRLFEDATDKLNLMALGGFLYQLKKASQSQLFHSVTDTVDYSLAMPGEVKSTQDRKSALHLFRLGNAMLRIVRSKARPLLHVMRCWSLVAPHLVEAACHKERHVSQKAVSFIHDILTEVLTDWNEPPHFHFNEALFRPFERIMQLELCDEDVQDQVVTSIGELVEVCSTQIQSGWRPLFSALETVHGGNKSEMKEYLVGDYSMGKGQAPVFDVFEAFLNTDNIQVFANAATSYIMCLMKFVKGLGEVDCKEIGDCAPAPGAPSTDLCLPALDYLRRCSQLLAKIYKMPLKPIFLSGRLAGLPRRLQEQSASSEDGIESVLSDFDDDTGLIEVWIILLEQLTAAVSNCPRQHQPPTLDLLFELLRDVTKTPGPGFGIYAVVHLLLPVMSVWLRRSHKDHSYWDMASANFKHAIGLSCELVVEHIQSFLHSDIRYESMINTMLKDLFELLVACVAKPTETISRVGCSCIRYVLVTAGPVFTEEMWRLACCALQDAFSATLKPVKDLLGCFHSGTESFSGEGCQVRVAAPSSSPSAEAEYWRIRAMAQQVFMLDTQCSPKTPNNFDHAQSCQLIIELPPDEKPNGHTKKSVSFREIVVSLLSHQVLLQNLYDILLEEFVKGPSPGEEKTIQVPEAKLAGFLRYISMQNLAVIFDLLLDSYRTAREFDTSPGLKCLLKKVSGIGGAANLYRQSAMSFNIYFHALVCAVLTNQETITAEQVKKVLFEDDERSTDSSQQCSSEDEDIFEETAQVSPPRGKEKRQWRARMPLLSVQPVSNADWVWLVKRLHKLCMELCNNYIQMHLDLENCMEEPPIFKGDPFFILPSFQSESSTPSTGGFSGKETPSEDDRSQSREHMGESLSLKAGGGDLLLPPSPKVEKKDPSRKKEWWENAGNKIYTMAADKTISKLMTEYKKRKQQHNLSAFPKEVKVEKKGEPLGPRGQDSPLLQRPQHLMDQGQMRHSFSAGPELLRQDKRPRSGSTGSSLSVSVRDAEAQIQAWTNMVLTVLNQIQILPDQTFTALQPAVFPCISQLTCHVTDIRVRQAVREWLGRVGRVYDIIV

IC50 [4] | Molecule | inhibition ratio of MCF-10A growth [1] | suppression of growth compared to PBS [2] | band intensity of Ser39 phosphorylation of PHB2 compared to ERAP treatment [3] | suppression ratio of E2-dependent growth ([5]; listed as 11-22aa) | suppression ratio of E2-dependent growth ([5]; listed as PHB2 (11-22aa)) | suppression ratio of E2-dependent growth ([5]; listed as SEQ ID NO: 1) | suppression ratio of E2-dependent growth [6] | suppression ratio of E2-dependent growth ([5]; listed as 76-90aa) | suppression ratio of E2-dependent growth ([5]; listed as PHB2 (76-90aa)) | inhibition of the binding between BIG3 and PHB2 [7]
462 nM | CSCC[C@H](NC(=O)CNC(=O)[C@H](CCCNC(=N)N)NC(=O)[C@@H]1CCCN1C(=O)CNC(=O)[C@H](C)NC(=O)[C@@H]1CCCN1C(=O)[C@H](CC(C)C)NC(=O)[C@@H](N)CCCNC(=N)N)C(=O)NCC(=O)N[C@H](C(=O)N[C@@H](C)C(=O)N[C@@H](CCCNC(=N)N)C(=O)N[C@@H](CCCNC(=N)N)C(=O)N[C@@H](CCCNC(=N)N)C(=O)N[C@@H](CCCNC(=N)N)C(=O)N[C@@H](CCCNC(=N)N)C(=O)N[C@@H](CCCNC(=N)N)C(=O)N[C@@H](CCCNC(=N)N)C(=O)N[C@@H](CCCNC(=N)N)C(=O)O)[C@@H](C)O [No. 1] | no effect on growth | about 50% | 40% | 40% | 63% | about 65% | 31% |  |  | 
273 nM | CC[C@H](C)[C@H](NC(=O)[C@H](CC(=O)O)NC(=O)[C@H](Cc1ccc(O)cc1)NC(=O)[C@@H](NC(=O)[C@@H](NC(=O)[C@@H]1CCCN1C(=O)[C@H](Cc1ccc(O)cc1)NC(=O)[C@@H](N)CCC(N)=O)[C@@H](C)CC)[C@@H](C)CC)C(=O)N[C@@H](CCCNC(=N)N)C(=O)N[C@@H](C)C(=O)N[C@@H](CCCNC(=N)N)C(=O)N1CCC[C@H]1C(=O)N[C@@H](CCCNC(=N)N)C(=O)N[C@@H](CCCCN)C(=O)N[C@H](C(=O)N[C@@H](CCCNC(=N)N)C(=O)N[C@@H](CCCNC(=N)N)C(=O)N[C@@H](CCCNC(=N)N)C(=O)N[C@@H](CCCNC(=N)N)C(=O)N[C@@H](CCCNC(=N)N)C(=O)N[C@@H](CCCNC(=N)N)C(=O)N[C@@H](CCCNC(=N)N)C(=O)N[C@@H](CCCNC(=N)N)C(=O)O)[C@@H](C)CC [No. 5] | no effect on growth | about 50% | 20% |  |  |  | 24% | 61% | 51% | 
 | B1 |  |  |  |  |  |  |  |  |  | did not provide a sufficient effect of inhibiting the binding
